The values that follow come from ChEMBL document CHEMBL4000243, “Anti-HSV-1, antioxidant and antifouling phenolic compounds from the deep-sea-derived fungus Aspergillus versicolor SCSIO 41502” (Bioorg Med Chem Lett, 2017).

One may read the IC50 as the concentration that gives 50% inhibition. In general, inhibition refers to the drop in the measured response relative to a control, in per cent. By EC50 is commonly meant the concentration that produces a half-maximal response. The term CC50 denotes the concentration that lowers cell viability or growth by half.

The subject of data set [1] is Human alphaherpesvirus 1. As to the kind of experiment: Antiviral activity against HSV-1 infected in African green monkey Vero cells by plaque reduction assay. It is filed as functional. To be noted: for EC50: Human alphaherpesvirus 1, Vero. On the technique in general: Plaques are areas of infected cells; plaque reduction assays count them against a control.
Data set [2] is described as follows: Antioxidant activity assessed as DPPH radical scavenging activity at 100 ug/ml after 30 mins. It is filed as functional. (The DPPH test is a chemical assay of radical scavenging.)
The nature of data set [3]: Antioxidant activity assessed as DPPH radical scavenging activity after 30 mins. Format: functional.
Data set [4] deals with Bugula neritina. As to the kind of experiment: Antifouling activity against Bugula neritina larvae assessed as inhibition of larval settlement at 25 ug/ml after 1 hr by dissecting microscopy relative to control. Format: functional.
Data set [5] concerns Bugula neritina. The data set can be described thus: Antifouling activity against Bugula neritina assessed as inhibition of larval settlement after 1 hr by dissecting microscopy. It is filed as functional.
Data set [6] concerns Bugula neritina. The data set can be described thus: Selectivity index, ratio of LC50 for Bugula neritina larvae to EC50 for antifouling activity against Bugula neritina larvae.
A short description of data set [7]: Cytotoxicity against African green monkey Vero cells assessed as reduction in cell viability by MTT assay. The following applies: chlorocebus sabaeus. Format: cell-based. For orientation: Tetrazolium assays rely on reduction of a dye to a coloured formazan, in cell work by metabolically active cells.
Data set [8] in a line: Antioxidant activity assessed as ABTS radical cation scavenging activity by measuring trolox equivalents by ABTS radical cation decolorization assay. It is filed as functional.

Values after ≈ are worked out from the molar mass of the structure shown. Active and inactive are the calls of the source. The calls are words filed in the database; no cut-off is given here.

In the case of `Cc1cc(O)c(Oc2cc(C)cc(O)c2Oc2cc(C)cc(O)c2O)c(O)c1`, in data set [1], the result was inactive. The Activity in data set [2] lay in the range of 81.3 to 92.8%. Also, the IC50 in data set [3] amounted to 25.2 µM. Further, in data set [4], the inhibition at 25 µg/mL worked out at 70.6%. In addition, the concentration giving a half-maximal response (EC50) in data set [5] was determined as 5.48 µg/mL (≈ 14.3 µM). The “Selectivity Index” value in data set [6] is more than 100.
With `O=C1O[C@H]([C@@H](O)CO)C(O)=C1O` [ASCORBIC ACID], in data set [3], the IC50 worked out at 45.2 µM.
Consider `Cc1cc(O)cc(O)c1O`, for which the Activity in data set [2] is 81.3 to 92.8%. Also, the IC50 in data set [3] is 35.1 µM. The inhibition at 25 µg/mL in data set [4] lay within 10 to 38%.
Turning to `C[C@]12CCC[C@@H](O1)c1c(cc3c(c1O)C(=O)c1c(O)cc(O)cc1C3=O)O2`, the Activity in data set [2] was less than 50%. For the same compound, the inhibition at 25 µg/mL in data set [4] lay within 10 to 38%.
Regarding `CC(=O)CC[C@H](COC(C)=O)c1c(O)cc2c(c1O)C(=O)c1c(O)cc(O)cc1C2=O`, in data set [1], the EC50 is 3.12 µM. For the same compound, the CC50 in data set [7] was determined as 65.1 µM. Besides, the Activity in data set [2] is less than 50%. Moreover, the inhibition at 25 µg/mL in data set [4] lay within 10 to 38%.
As to `CCCCCC(c1c(C)cc(Oc2cc(C)cc(O)c2)cc1O)c1c(O)cc2c(c1O)C(=O)c1c(O)cc(O)cc1C2=O` (stereo in doubt; (+)-7), the Activity in data set [8] was found to be 2.07 mmol/g.
`COC(C)CC(=O)Cc1cc(O)c(C)c(O)c1C=O` (racemic): the Activity in data set [2] was less than 50%.
Take `Cc1cc(O)cc(Oc2cc(C)cc(O)c2O)c1` [CORDYOL C]: the Activity in data set [2] fell in the range of 81.3 to 92.8%. Besides, the half-maximal inhibitory concentration (IC50) in data set [3] was 52.3 µM. In addition, in data set [4], the inhibition at 25 µg/mL fell in the range of 10 to 38%.
As for `Cc1c(O)cc(CC(=O)C[C@H](C)O)c(C=O)c1O`, the Activity in data set [2] was less than 50%. Also, the inhibition at 25 µg/mL in data set [4] was 72.4%. Also, in data set [5], the EC50 turned out to be 3.4 µg/mL (≈ 13.5 µM). Besides, the “Selectivity Index” value in data set [6] was more than 100.
Consider `Cc1cc(O)cc(OC(=O)c2c(C)cc(O)cc2O)c1` [LECANORIN], for which, in data set [2], the Activity is less than 50%. Further, the inhibition at 25 µg/mL in data set [4] fell in the range of 10 to 38%.
For the compound `CCCCCC(c1c(C)cc(Oc2cc(C)cc(O)c2)cc1O)c1c(O)cc2c(c1O)C(=O)c1c(O)cc(O)cc1C2=O` (stereo in doubt; (-)-7), the Activity in data set [8] was 1.53 to 2 mmol/g.
In the case of `C[C@H](O)CC[C@H](CO)c1c(O)cc2c(c1O)C(=O)c1c(O)cc(O)cc1C2=O`, a half-maximal effect in data set [1] (EC50) was put at 6.25 µM. The CC50 in data set [7] was 50.7 µM. In addition, the Activity in data set [2] is less than 50%.
For `COC(=O)c1c(O)ccc2oc3cc(C)cc(O)c3c(=O)c12`, the Activity in data set [2] is less than 50%. Moreover, the inhibition at 25 µg/mL in data set [4] was 10 to 38%.
For the compound `CC(=O)CC[C@H](CO)c1c(O)cc2c(c1O)C(=O)c1c(O)cc(O)cc1C2=O`, the result in data set [1] was inactive. The Activity in data set [2] was less than 50%. Moreover, the inhibition at 25 µg/mL in data set [4] is 10 to 38%.
Take `Cc1c(O)cc2cc(C[C@H](C)O)oc(=O)c2c1O`: the Activity in data set [2] was less than 50%.
As for `CCCCCC(c1c(O)cc(C)cc1Oc1cc(C)cc(O)c1)c1c(O)cc2c(c1O)C(=O)c1c(O)cc(O)cc1C2=O` (racemic), the outcome in data set [1] was inactive. Further, the Activity was less than 50% in data set [2] and 2.18 mmol/g in data set [8].
The compound `Nc1nc2c(ncn2COCCO)c(=O)[nH]1` [ACYCLOVIR] registered an EC50 in data set [1] of 3 µM. In addition, the CC50 in data set [7] was more than 1000 µM.
On to `O=C1c2cc(O)cc(O)c2C(=O)c2c1cc(O)c([C@@H](CO)CCO)c2O`, for which the Activity in data set [2] was less than 50%. Further, in data set [4], the inhibition at 25 µg/mL fell in the range of 10 to 38%.
Consider `COC(=O)c1c(C)cc(O)cc1O` [METHYL ORSELLINATE], for which, in data set [2], the Activity is less than 50%. The inhibition at 25 µg/mL in data set [4] was 10 to 38%.
For `CCCCCC(c1c(C)cc(Oc2cc(C)cc(O)c2)cc1O)c1c(O)cc2c(c1O)C(=O)c1c(O)cc(O)cc1C2=O` (racemic) [listing 1 of 2 here], the inhibition at 25 µg/mL in data set [4] fell in the range of 10 to 38%.
Regarding `CCCCCC(c1c(C)cc(O)cc1O)c1c(O)cc2c(c1O)C(=O)c1c(O)cc(Oc3cc(C)cc(O)c3)cc1C2=O` (racemic) [listing 1 of 2 here], in data set [1], the outcome was inactive. In addition, the Activity in data set [2] was less than 50%; in data set [8] it was 2.27 mmol/g.
As for `Cc1cc(O)cc(Oc2cc(C)c(C(=O)OCC(O)CO)c(O)c2)c1` (racemic), the Activity in data set [2] is less than 50%. Also, the inhibition at 25 µg/mL in data set [4] came to 91.2%. Also, the concentration giving a half-maximal response (EC50) in data set [5] is 1.28 µg/mL (≈ 3.67 µM). In addition, in data set [6], the “Selectivity Index” value is recorded as more than 100.
For `CCCCC[C@H](OC)c1c(O)cc2c(c1O)C(=O)c1c(O)cc(O)cc1C2=O`, the Activity in data set [2] was less than 50%. Moreover, the inhibition at 25 µg/mL in data set [4] lay in the range of 10 to 38%.
Taken in the same sequence, the figures for `Cc1cc(O)cc(Oc2cc(C)cc(O)c2)c1` [DIORCINOL] were less than 50% and 10 to 38%.
Regarding `Cc1cc(O)cc(O)c1` [ORCINOL], the Activity in data set [2] is less than 50%. In addition, in data set [4], the inhibition at 25 µg/mL is 10 to 38%.
In the case of `CCCCCC(c1c(C)cc(O)cc1O)c1c(O)cc2c(c1O)C(=O)c1c(O)cc(Oc3cc(C)cc(O)c3)cc1C2=O` (racemic) [listing 2 of 2 here], the inhibition at 25 µg/mL in data set [4] was in the range of 10 to 38%.
In the case of `Cc1cc(O)c(Oc2cc(C)cc(O)c2O)c(O)c1`, the Activity in data set [2] was in the range of 81.3 to 92.8%. Moreover, the 50% inhibitory concentration (IC50) in data set [3] is 31.2 µM. For the same compound, in data set [4], the inhibition at 25 µg/mL was in the range of 10 to 38%.
On to `Cc1cc(O)cc(O)c1C(=O)O` [ORSELLINIC ACID], for which the Activity in data set [2] was less than 50%. The inhibition at 25 µg/mL in data set [4] is 10 to 38%.
On the same counts, the results for `COC(=O)c1c(C)cc(Oc2cc(O)cc(C)c2C(=O)O)cc1O` are less than 50% and 10 to 38%.
For the compound `Cc1cc(O)c(O)c(Oc2cc(C)cc(O)c2Oc2cc(C)cc(O)c2O)c1`, in data set [1], the result was inactive. Besides, in data set [2], the Activity is 81.3 to 92.8%. The half-maximal inhibitory concentration (IC50) in data set [3] came to 21.2 µM. Besides, the inhibition at 25 µg/mL in data set [4] came to 80%. The EC50 in data set [5] was determined as 2.61 µg/mL (≈ 6.79 µM). For the same compound, the “Selectivity Index” value in data set [6] is on record as more than 100.
Take `CCCCCC(c1c(C)cc(O)cc1O)c1c(O)cc2c(c1O)C(=O)c1c(O)cc(Oc3cc(C)cc(O)c3)cc1C2=O` (stereo in doubt; (-)-6): the Activity in data set [8] was found to be 1.65 mmol/g.
Consider `Cc1cc(O)c(Oc2cc(C)cc(Oc3cc(C)cc(O)c3O)c2O)c(O)c1`, for which the outcome in data set [1] was inactive. Moreover, the Activity in data set [2] was in the range of 81.3 to 92.8%. The IC50 in data set [3] stood at 18.9 µM. In data set [4], the inhibition at 25 µg/mL worked out at 85.3%. Further, in data set [5], the EC50 was 1.59 µg/mL (≈ 4.14 µM). Also, in data set [6], the “Selectivity Index” value is recorded as more than 100.
As for `CCCCCC(c1c(C)cc(Oc2cc(C)cc(O)c2)cc1O)c1c(O)cc2c(c1O)C(=O)c1c(O)cc(O)cc1C2=O` (racemic) [listing 2 of 2 here], the outcome in data set [1] was inactive. The Activity was less than 50% in data set [2] and 2.11 mmol/g in data set [8].
On to `Cc1cc(OC(=O)c2c(C)cc(O)cc2O)cc(O)c1C(=O)O` [LECANORIC ACID], for which the Activity in data set [2] is less than 50%. Moreover, the inhibition at 25 µg/mL in data set [4] was in the range of 10 to 38%.
On to `CC(=O)CCCC(c1c(C)cc(Oc2cc(C)cc(O)c2)cc1O)c1c(O)cc2c(c1O)C(=O)c1c(O)cc(O)cc1C2=O` (racemic), for which the 50% effective concentration (EC50) in data set [1] is 4.68 µM. Moreover, the CC50 in data set [7] is 109 µM. In addition, the Activity in data set [2] is less than 50%; in data set [8] it was 2.03 mmol/g.
